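Cultured in 96-well plates, cells were exposed to test compound for 48 hours across five concentrations. At the GI50, growth is halved.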 Calls of active or inactive are those of the source. Cut-off read from the data, not from the text of the source: active = GI50 up to about 1.1 µM and inactive = higher.
Experiments:
Assay in all cases: DTP human tumour cell line panel, 48 h
[1] = system: MCF7
[2] = system: K562
[3] = system: HT-29
[4] = system: PC-3
[5] = system: SNB-19
[6] = system: ACHN
[7] = system: CAKI-1
[8] = system: COLO 205
[9] = system: HCT-116
[10] = system: HCC 2998
[11] = system: OVCAR-4
[12] = system: NCI-H460
[13] = system: A549
[14] = system: SK-MEL-2
[15] = system: SK-MEL-5
[16] = system: NCI-H522
[17] = system: OVCAR-3
[18] = system: Hs-578T
[19] = system: SF-539
[20] = system: A498

Compound | GI50 [1] | GI50 [2] | GI50 [3] | GI50 [4] | GI50 [5] | GI50 [6] | GI50 [7] | GI50 [8] | GI50 [9] | GI50 [10] | GI50 [11] | GI50 [12] | GI50 [13] | GI50 [14] | GI50 [15] | GI50 [16] | GI50 [17] | GI50 [18] | GI50 [19] | GI50 [20]
c1ccc2c(c1)CCc1c-2n(CCN2CCCCC2)c2ccccc12 | 15.2 µM (inactive) | 9.75 µM (inactive) | 8.2 µM (inactive) | 11.8 µM (inactive) | 26 µM (inactive) | 18.7 µM (inactive) | 16.6 µM (inactive) | 11.8 µM (inactive) | 12.5 µM (inactive) | 13.1 µM (inactive) | 18.8 µM (inactive) | 15.6 µM (inactive) | 18.7 µM (inactive) | 16.3 µM (inactive) | 0.564 µM (active) | 13.5 µM (inactive) | 16.6 µM (inactive) | 18.2 µM (inactive) | 12.9 µM (inactive) | –
Cc1ccc(S(=O)(=O)[N-]C2C(=O)c3ccccc3C(=O)C2[n+]2cccc(C(N)=O)c2)cc1 (stereo unspecified) | > 100 µM (inactive) | > 100 µM (inactive) | > 100 µM (inactive) | > 100 µM (inactive) | > 100 µM (inactive) | > 100 µM (inactive) | 40.9 µM (inactive) | 24.8 µM (inactive) | 17.4 µM (inactive) | 38.5 µM (inactive) | 26.9 µM (inactive) | > 100 µM (inactive) | > 100 µM (inactive) | > 100 µM (inactive) | > 100 µM (inactive) | > 100 µM (inactive) | > 100 µM (inactive) | > 100 µM (inactive) | > 100 µM (inactive) | –
CCn1c(-c2cc(OC)cc(OC)c2)nc2c1C(=O)c1ccccc1C2=O | > 100 µM (inactive) | > 100 µM (inactive) | > 100 µM (inactive) | > 100 µM (inactive) | > 100 µM (inactive) | > 100 µM (inactive) | – | > 100 µM (inactive) | > 100 µM (inactive) | > 100 µM (inactive) | > 100 µM (inactive) | > 100 µM (inactive) | > 100 µM (inactive) | – | > 100 µM (inactive) | 6.46 µM (inactive) | > 100 µM (inactive) | 36.5 µM (inactive) | > 100 µM (inactive) | –
COc1ccc(C(OCC2OC3(COC(c4ccccc4)(c4ccc(OC)cc4)c4ccc(OC)cc4)C(Oc4nc(=O)ccn43)C2O)(c2ccccc2)c2ccc(OC)cc2)cc1 (stereo unspecified) | > 100 µM (inactive) | > 100 µM (inactive) | > 100 µM (inactive) | > 100 µM (inactive) | 88.9 µM (inactive) | > 100 µM (inactive) | > 100 µM (inactive) | > 100 µM (inactive) | > 100 µM (inactive) | – | > 100 µM (inactive) | – | > 100 µM (inactive) | > 100 µM (inactive) | > 100 µM (inactive) | > 100 µM (inactive) | > 100 µM (inactive) | 10.8 µM (inactive) | > 100 µM (inactive) | –
Cc1c(C(=O)C(=O)c2ccccc2)c(C)c(C(=O)C(=O)c2ccccc2)c(C)c1C(=O)C(=O)c1ccccc1 | > 100 µM (inactive) | > 100 µM (inactive) | > 100 µM (inactive) | > 100 µM (inactive) | > 100 µM (inactive) | > 100 µM (inactive) | – | > 100 µM (inactive) | > 100 µM (inactive) | > 100 µM (inactive) | > 100 µM (inactive) | > 100 µM (inactive) | > 100 µM (inactive) | – | > 100 µM (inactive) | > 100 µM (inactive) | – | > 100 µM (inactive) | > 100 µM (inactive) | –
C=C(C)[C@@H]1CC[C@]2(C(=O)O)CC[C@]3(C)[C@H](CCC4[C@@]5(C)CC[C@H](C(=O)/C=C/c6ccc(O)c(O)c6)C(C)(C)[C@@H]5CC[C@]43C)[C@@H]12 (stereo partly specified) | 4.04 µM (inactive) | 3.85 µM (inactive) | – | 4.32 µM (inactive) | 11.9 µM (inactive) | 2.72 µM (inactive) | 3.66 µM (inactive) | 2.84 µM (inactive) | 2.77 µM (inactive) | 1.88 µM (inactive) | 10.4 µM (inactive) | 2.81 µM (inactive) | 2.58 µM (inactive) | 12.6 µM (inactive) | 2.85 µM (inactive) | – | 10.7 µM (inactive) | 5.47 µM (inactive) | 2.53 µM (inactive) | –
COc1ccc(/C=C2\N=C3NC(=O)C(N4CCCCC4)=C(N)N3C2=O)cc1 | > 100 µM (inactive) | 62.4 µM (inactive) | > 100 µM (inactive) | – | > 100 µM (inactive) | 70.6 µM (inactive) | > 100 µM (inactive) | > 100 µM (inactive) | > 100 µM (inactive) | > 100 µM (inactive) | > 100 µM (inactive) | – | > 100 µM (inactive) | – | > 100 µM (inactive) | > 100 µM (inactive) | – | 47.5 µM (inactive) | > 100 µM (inactive) | > 100 µM (inactive)
C(=N\OCCc1ccccc1)/c1cccnc1 | > 100 µM (inactive) | > 100 µM (inactive) | > 100 µM (inactive) | > 100 µM (inactive) | > 100 µM (inactive) | > 100 µM (inactive) | – | > 100 µM (inactive) | > 100 µM (inactive) | > 100 µM (inactive) | > 100 µM (inactive) | > 100 µM (inactive) | > 100 µM (inactive) | > 100 µM (inactive) | > 100 µM (inactive) | > 100 µM (inactive) | > 100 µM (inactive) | > 100 µM (inactive) | > 100 µM (inactive) | –
O=C(Cn1c(-c2ccccc2)cc2ccccc21)N1CCCC1 | > 100 µM (inactive) | – | > 100 µM (inactive) | > 100 µM (inactive) | > 100 µM (inactive) | > 100 µM (inactive) | – | > 100 µM (inactive) | > 100 µM (inactive) | – | > 100 µM (inactive) | > 100 µM (inactive) | > 100 µM (inactive) | > 100 µM (inactive) | 63.2 µM (inactive) | > 100 µM (inactive) | > 100 µM (inactive) | > 100 µM (inactive) | – | –
COC(=O)c1c(C)cc(OC)c(C/C=C(\C)CCCc2coc(C=C(C)C)c2)c1OC | > 100 µM (inactive) | > 100 µM (inactive) | 74.8 µM (inactive) | > 100 µM (inactive) | > 100 µM (inactive) | > 100 µM (inactive) | > 100 µM (inactive) | > 100 µM (inactive) | > 100 µM (inactive) | > 100 µM (inactive) | > 100 µM (inactive) | > 100 µM (inactive) | > 100 µM (inactive) | > 100 µM (inactive) | > 100 µM (inactive) | 14.9 µM (inactive) | > 100 µM (inactive) | 18.2 µM (inactive) | 49 µM (inactive) | –
Cc1nc2ccc(S(=O)(=O)Nc3ccccc3Cl)cc2c(=O)n1NC(=O)CNc1ccccc1Cl | > 100 µM (inactive) | > 100 µM (inactive) | > 100 µM (inactive) | > 100 µM (inactive) | > 100 µM (inactive) | > 100 µM (inactive) | > 100 µM (inactive) | > 100 µM (inactive) | > 100 µM (inactive) | > 100 µM (inactive) | > 100 µM (inactive) | > 100 µM (inactive) | > 100 µM (inactive) | > 100 µM (inactive) | – | > 100 µM (inactive) | > 100 µM (inactive) | > 100 µM (inactive) | > 100 µM (inactive) | –

— ChEMBL document CHEMBL1201862, “PubChem BioAssay data set” (2004)
